Assay results published in publication PMC5736175, “Nicotinic alpha 7 receptor agonists EVP-6124 and BMS-933043, attenuate scopolamine-induced deficits in visuo-spatial paired associates learning” (PLoS ONE, 2017).
Several values for one entry are separate records, joined by “and”; a condition that tells them apart may be missing. Equal entries are not always repeated.

How the values were obtained:
human nAChR α7 = test system: human nAChR α7; parameters: method as in PMID 20959364; conditions: QM7 cells expressing human nAChR α7; cited from earlier work
5-HT3 receptor = conditions: cited from earlier work
[1] = test system: scopolamine-treated cynomolgus monkeys; experiment: Scopolamine-induced impairment of vsPAL task performance, treatment + scopolamine; assay type: in vivo, cynomolgus monkeys (Macaca Fasicularis)
Experimental: Doses cited refer to the free base form of the compounds. […] All drugs were administered intramuscularly (i.m.) in a dosing volume of 0.1–0.2 ml/kg.
On days when compound testing occurred, approximately half the cohort received one dose and the remainder another dose of the same compound and therefore dose order was staggered between animals. With the exception of EVP-6124, all other compounds were tested in a single dose response study.
Cohen’s d values of >0.2, >0.5 and >0.8 are described using the conventions of small, medium, and large effects, respectively.

[2] = RG3487 0.03 mg/kg + Individualized Scopolamine, MEAN of 8 animals
[3] = RG3487 0.03 mg/kg + Individualized Scopolamine, individual animals, 0.03 mg/kg
[4] = RG3487 0.03 mg/kg + scopolamine, MEAN of 8 animals
[5] = RG3487 0.03 mg/kg + scopolamine, individual animals, 0.03 mg/kg
[6] = RG3487 0.1 mg/kg + Individualized Scopolamine, MEAN of 8 animals
[7] = RG3487 0.1 mg/kg + Individualized Scopolamine, individual animals, 0.1 mg/kg
[8] = RG3487 0.1 mg/kg + scopolamine, MEAN of 8 animals
[9] = RG3487 0.1 mg/kg + scopolamine, individual animals, 0.1 mg/kg
[10] = RG3487 0.3 mg/kg + scopolamine, MEAN of 8 animals
[11] = RG3487 0.3 mg/kg + scopolamine, individual animals, 0.3 mg/kg

Cl.O=C(N[C@@H]1CN2CCC1CC2)c1n[nH]c2ccccc12 [RG3487, N-[(3S)-1-Azabicyclo[2.2.2]oct-3-yl]-1H-indazole-3-carboxamide HCl]
maximal peak current relative to acetylcholine (human nAChR α7): 69%
net charge relative to acetylcholine (human nAChR α7): 53%
5-HT3 receptor antagonism (5-HT3 receptor): potent 5-HT3 receptor antagonists
Initial Correct, 3 Stimuli [1, 2]: 43.8%
Initial Correct, 4 Stimuli [1, 2]: 25.0%
Initial Correct, Overall Mean % Correct [1, 2]: 50.8%
Initial correct, 2 Stimuli [1, 2]: 83.8%
Initial Correct, 3 Stimuli [1, 3]: 60.0% and 20.0% and 40.0% and 30.0% and 90.0% and 10.0% and 80.0%
Initial Correct, 4 Stimuli [1, 3]: 30.0% and 0.0% and 50.0% and 40.0%
Initial Correct, Overall Mean % Correct [1, 3]: 60.0% and 36.7% and 46.7% and 76.7% and 40.0% and 30.0% and 70.0%
Initial correct, 2 Stimuli [1, 3]: 90.0% and 70.0% and 60.0% and 100.0% and 80.0%
Eventual Correct, 4 Stimuli ([1]; RG3487 0.03 mg/kg + scopolamine, MEAN): 59.5%
% Completion [1, 4]: 73.5%
Average Response Latency (Avg Rsp Lat) [1, 4]: 2136.0 ms
Eventual Correct, 2 Stimuli [1, 4]: 98.8%
Eventual Correct, 3 Stimuli [1, 4]: 83.8%
Eventual Correct, Overall Mean % Correct [1, 4]: 78.2%
% Completion [1, 5]: 66.2% and 53.1% and 100.0% and 69.9% and 90.5% and 22.8% and 97.3% and 88.2%
Average Response Latency (Avg Rsp Lat) [1, 5]: 2657.3 ms and 2531.6 ms and 1590.6 ms and 1325.7 ms and 2502.3 ms and 1742.8 ms and 2670.3 ms and 2067.1 ms
Eventual Correct, 2 Stimuli [1, 5]: 100.0% and 90.0%
Eventual Correct, 3 Stimuli [1, 5]: 100.0% and 60.0% and 70.0% and 50.0% and 90.0%
Eventual Correct, 4 Stimuli [1, 5]: 50.0% and 0.0% and 90.0% and 70.0% and 100.0% and 16.7%
Eventual Correct, Overall Mean % Correct [1, 5]: 83.3% and 50.0% and 96.7% and 80.0% and 100.0% and 68.9%
Initial Correct, 3 Stimuli [1, 6]: 47.5%
Initial Correct, 4 Stimuli [1, 6]: 13.8%
Initial Correct, Overall Mean % Correct [1, 6]: 50.4%
Initial correct, 2 Stimuli [1, 6]: 90.0%
Initial Correct, 3 Stimuli [1, 7]: 70.0% and 10.0% and 60.0% and 50.0% and 80.0% and 40.0% and 30.0%
Initial Correct, 4 Stimuli [1, 7]: 20.0% and 0.0% and 30.0% and 10.0% and 50.0%
Initial Correct, Overall Mean % Correct [1, 7]: 63.3% and 30.0% and 46.7% and 56.7% and 43.3%
Initial correct, 2 Stimuli [1, 7]: 100.0% and 80.0% and 90.0%
% Completion [1, 8]: 75.6%
Average Response Latency (Avg Rsp Lat) [1, 8]: 2202.7 ms
Eventual Correct, 2 Stimuli [1, 8]: 100.0%
Eventual Correct, 3 Stimuli [1, 8]: 91.3%
Eventual Correct, 4 Stimuli [1, 8]: 48.1%
Eventual Correct, Overall Mean % Correct [1, 8]: 79.8%
Eventual Correct, 2 Stimuli ([1]; RG3487 0.1 mg/kg + scopolamine, individual animals): 100.0%
% Completion [1, 9]: 58.8% and 65.1% and 100.0% and 88.7% and 67.1% and 35.0% and 91.9% and 98.1%
Average Response Latency (Avg Rsp Lat) [1, 9]: 2536.1 ms and 2248.5 ms and 1598.6 ms and 1289.8 ms and 2048.9 ms and 2712.3 ms and 2472.3 ms and 2715.2 ms
Eventual Correct, 3 Stimuli [1, 9]: 100.0% and 80.0% and 70.0%
Eventual Correct, 4 Stimuli [1, 9]: 50.0% and 16.7% and 80.0% and 70.0% and 40.0% and 11.1% and 100.0%
Eventual Correct, Overall Mean % Correct [1, 9]: 83.3% and 65.6% and 93.3% and 90.0% and 80.0% and 63.7% and 62.2% and 100.0%
% Completion [1, 10]: 74.7%
Average Response Latency (Avg Rsp Lat) [1, 10]: 2047.1 ms
Initial Correct, 3 Stimuli [1, 10]: 42.5%
Initial Correct, 4 Stimuli [1, 10]: 20.4%
Initial Correct, Overall Mean % Correct [1, 10]: 48.9%
Initial correct, 2 Stimuli [1, 10]: 83.8%
% Completion [1, 11]: 48.2% and 79.1% and 98.4% and 87.1% and 95.1% and 24.7% and 100.0% and 65.1%
Average Response Latency (Avg Rsp Lat) [1, 11]: 1983.4 ms and 2543.8 ms and 1430.4 ms and 1376.1 ms and 2172.3 ms and 1933.4 ms and 2432.3 ms and 2505.1 ms
Initial Correct, 3 Stimuli [1, 11]: 30.0% and 70.0% and 0.0% and 40.0%
